Experimental data reported in patent publication US20240316023A1, “BENEDIN, PIPERIDINE, 2-BENZHYDRYL-3-HYDROXY-N-METHYL-, HYDROCHLORIDE AND DERIVATIVES THEREOF FOR USE IN TREATING KLEINE-LEVIN SYNDROME” (priority 2021, published 2024).

Key:
[1] = molecular target: T1, DAT (h) (antagonist radioligand) (Homo sapiens, UniProt Q01959); assay: Radioligand binding panel (Eurofins/CEREP), DAT; conditions: % inhibition of control specific binding
T1 construct: CEREP (Eurofins, France), contract panel
Experimental: Benedin was tested at 10^−5 M, calculated as a % inhibition of control specific binding of a radioactively labeled ligand specific for each target.
This binding profile panel was broadly defined with roughly an equal number of selective, central and peripheral therapeutically relevant targets, including native animal tissues, radioligands and specific enzymes involved in cell cycle regulation in accordance with Eurofins Standard Operating Procedure.
For radioligand binding experiments, the half maximal inhibitory concentration (IC50) and the half maximal effective concentration (EC50) values were determined (via computer software) by nonlinear regression analysis of the competition curves using Hill equation curve fitting. The inhibition constants (Ki) were calculated using the Cheng-Prusoff equation (Ki=IC50/(1+(L/KD)), where L is the concentration of radioligand in the assay, and KD is the affinity of the radioligand for the receptor.^60
The results are expressed as a % control specific binding ([measured specific binding/control specific binding]×100) and as a % inhibition of control specific binding (100−[(measured specific binding/control specific binding)×100] obtained in the presence of the test compounds. […]

[2] = molecular target: RXFP4 (h) (agonist radioligand) (Homo sapiens, UniProt Q8TDU9); assay: GPCR Biosensor cAMP Hunter assay, RXFP4; assay type: cell-based
Experimental: (§1) Benedin is found to weakly bind with RXFP4 and RXFP3 receptors (Study FR095-0024749-Q Eurofins/leadHunter Jun. 25, 2021; unpublished data) (Table 2).
(§2) In these assays' compounds were tested in agonist and antagonist mode with the GPCR Biosensor Assays and match to this design:
(§3) 1. cAMP Hunter cell lines were expanded from freezer stocks according to standard procedures.
(§4) 2. Cells were seeded in a total volume of 20 μL into white walled, 384-well microplates and incubated at 37° C. for the appropriate time prior to testing.
(§5) 3. cAMP modulation was determined using the DiscoverX HitHunter CAMP XS+assay.
(§6) 1. For agonist determination, cells were incubated with sample in the presence of EC80 forskolin to induce response.
(§7) 2. Media was aspirated from cells and replaced with 15 μL 2:1 HBSS/10 mM Hepes: CAMP XS+Ab reagent. […]
(§8) 2. Microplates were read following signal generation with a PerkinElmer Envision™ instrument for chemiluminescent signal detection.
(§9) 5. For Gi agonist mode assays, percentage activity is calculated using the following formula: % Activity=100%×(1−(mean RLU of test sample-mean RLU of MAX control)/(mean RLU of vehicle control−mean RLU of MAX control)).
(§10) 8. For Gi antagonist or negative allosteric mode assays, percentage inhibition is calculated using the following formula: % Inhibition=100%×(mean RLU of test sample−mean RLU of EC80 control)/(mean RLU of forskolin positive control−mean RLU of […]

[3] = molecular target: T2, RXFP3 (h) (agonist radioligand) (Homo sapiens, UniProt Q9NSD7); assay: GPCR Biosensor cAMP Hunter assay, RXFP3; assay type: cell-based
T2 sequence (Q9NSD7 1-469): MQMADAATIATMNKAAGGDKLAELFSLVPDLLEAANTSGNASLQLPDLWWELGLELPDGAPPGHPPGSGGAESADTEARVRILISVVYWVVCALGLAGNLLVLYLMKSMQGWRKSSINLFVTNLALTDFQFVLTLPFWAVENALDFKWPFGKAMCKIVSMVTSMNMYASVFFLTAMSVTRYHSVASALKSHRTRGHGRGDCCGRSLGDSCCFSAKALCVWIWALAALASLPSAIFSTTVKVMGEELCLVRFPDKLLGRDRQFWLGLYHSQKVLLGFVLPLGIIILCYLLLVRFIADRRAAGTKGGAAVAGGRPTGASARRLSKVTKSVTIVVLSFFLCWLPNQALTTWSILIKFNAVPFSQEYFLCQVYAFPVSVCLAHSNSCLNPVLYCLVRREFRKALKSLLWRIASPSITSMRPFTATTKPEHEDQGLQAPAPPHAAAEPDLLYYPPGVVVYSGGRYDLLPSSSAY
Experimental: as §1, §2, §3, §4, §5, §6, §7, §8, §9, §10

[4] = 10^−5 M, read-out: % Inhibition at 10^−5M Benedin

RXFP4 (h) (agonist radioligand), sequence (Q8TDU9 whole entry): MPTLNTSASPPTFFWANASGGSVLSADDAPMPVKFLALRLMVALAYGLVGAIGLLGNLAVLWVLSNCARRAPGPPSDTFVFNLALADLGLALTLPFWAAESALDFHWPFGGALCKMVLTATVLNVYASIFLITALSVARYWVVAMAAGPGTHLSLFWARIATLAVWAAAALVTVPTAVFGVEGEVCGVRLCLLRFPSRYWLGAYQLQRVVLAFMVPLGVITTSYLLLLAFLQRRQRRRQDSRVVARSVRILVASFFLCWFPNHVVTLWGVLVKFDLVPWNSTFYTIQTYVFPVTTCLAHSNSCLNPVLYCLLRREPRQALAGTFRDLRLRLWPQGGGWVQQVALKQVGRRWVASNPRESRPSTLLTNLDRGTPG
T1 sequence (Q01959 whole entry): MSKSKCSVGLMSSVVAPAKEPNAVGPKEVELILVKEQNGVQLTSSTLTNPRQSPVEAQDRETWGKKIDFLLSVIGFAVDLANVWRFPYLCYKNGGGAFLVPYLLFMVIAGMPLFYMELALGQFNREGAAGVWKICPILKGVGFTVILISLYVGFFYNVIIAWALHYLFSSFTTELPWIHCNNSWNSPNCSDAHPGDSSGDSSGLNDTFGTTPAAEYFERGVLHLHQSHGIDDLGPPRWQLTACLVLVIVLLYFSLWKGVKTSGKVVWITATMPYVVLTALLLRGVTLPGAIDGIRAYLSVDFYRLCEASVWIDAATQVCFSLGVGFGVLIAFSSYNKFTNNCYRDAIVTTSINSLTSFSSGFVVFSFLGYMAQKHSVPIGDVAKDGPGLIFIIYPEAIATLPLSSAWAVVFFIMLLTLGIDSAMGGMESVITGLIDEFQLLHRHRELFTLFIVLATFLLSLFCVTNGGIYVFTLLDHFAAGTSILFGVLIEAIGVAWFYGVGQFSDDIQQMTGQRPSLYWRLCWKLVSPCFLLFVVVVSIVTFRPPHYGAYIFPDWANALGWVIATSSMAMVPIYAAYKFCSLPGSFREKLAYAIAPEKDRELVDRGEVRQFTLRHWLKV

`CN1CCCC(O)C1C(c1ccccc1)c1ccccc1` (stereo not drawn) [Benedin, 2-benzhydryl-3-hydroxy-N-methyl-piperidine] was tested, and the inhibition at 10 µM [1, 4] was 99.1%, the “% Inhibition at 10^−5M Benedin” value [1] was “appreciable potencies” and the “% Inhibition at 10^−5M Benedin” value [2] was “weakly bind”. For the same compound, the inhibition at 10 µM [2, 4] was 26.3%, the “% Inhibition at 10^−5M Benedin” value [3] was “weakly bind” and the inhibition at 10 µM [3, 4] was 21.4%.
